Data reported in patent US20170209364A1, “Method For Treating The Appearance Of Thinning Hair” (priority 2016, published 2017).

Tests used:
5-α reductase enzyme = assay: 5-α reductase inhibition: [14C]-testosterone metabolism to DHT in cultured cells (TLC/autoradiography); assay type: cell-based; settings: Finasteride 1 × 10^−5 M (reference)
Experimental: Cells were seeded in a 24-well plate and cultured for 24 hours in culture medium. […] Cells were then treated with assay medium containing [^14C]-testosterone and containing the test compound, the association or the reference and the cells were incubated for 24 hours. The culture supernatants were then collected for testosterone metabolism analysis and a standard MTT reduction assay was performed on the cell layers (cell viability assessment).
All experimental conditions were performed in n=3.
The steroid molecules from supernatants were extracted with a chloroform/methanol mix. The organic phase was collected and the different molecular species (testosterone metabolites) were separated by thin layer chromatography (TLC) and using a solvent system containing dichloromethane, ethyl acetate and methanol.
An autoradiography was performed on the chromatography and the transformed testosterone was estimated by densitometric analysis of the different spots corresponding to testosterone metabolites (Packard Cyclone Phosphorlmager and Fujifilm Multigauge software).

Experimental for in vitro: Cells were seeded in a 24-well plate and cultured for 24 hours in culture medium.
At the end of incubation, the cells were incubated with MTT (tetrazolium salt) reduced in blue formazan crystals by succinate dehydrogenase (mitochondrial enzyme). This transformation is proportional to the enzyme activity. After cell dissociation and formazan crystal solubilization using DMSO, the optical density (OD) of the extracts at 540 nm, proportional to the number of living cells and their metabolic activity, was recorded with a microplate reader (VERSAmax, Molecular Devices). The equation used for measuring cell viability is as follows: viability (%)=(OD sample/OD control)×100.
Dermal papilla cell viability is measured with a standard MTT assay (via ASTM E2526-08(2013)).

In the case of `CC(C)(C)NC(=O)[C@H]1CC[C@H]2[C@@H]3CC[C@H]4NC(=O)C=C[C@]4(C)[C@H]3CC[C@]12C` [Finasteride, finasteride], the “DHT/Testosterone ratio as % of Control” value (5-α reductase enzyme) is reported as 28% and the viability at 48 h (in vitro) is reported as 101%.
